Structures can show the parent of a compound that is named as a salt. Where two headings read alike, the source gives them in different places. Blank lines part the entries; values can stand above or below the molecule they belong to.
Assays:
activated human C1 = activated human C1 (Homo sapiens, UniProt P09871); experiment: Test Code 026 (C1 inhibitor); format: biochemical; details: serial dilution assay, twofold dilutions; higher well number indicates higher activity
[1] = test system: late components of human complement (C3-C9); experiment: Test Code 035 (C3-C9 inhibitor), lysis of EAC 142; format: biochemical; details: serial dilution assay, twofold dilutions; higher well number indicates higher activity
[2] = test system: serum complement activity; experiment: Guinea Pig Intraperitoneal Test (GPIP); format: in vivo; details: Cavia porcellus, ip, 200 mg/kg i.p.
Procedure: The concentration of compound inhibiting 50% is reported; and (iv) Guinea Pig Intraperitoneal Test (GPIP): Guinea pigs weighing about 300 g are dosed intraperitoneally (i.p.) with 200 mg/kg of the test compound dissolved in saline and adjusted to pH 7-8. Approximately 0.4 ml blood samples, taken by orbital sinus puncture 2 hours and 6 hours after injections, are collected directly into centifuge tubes; 5 ml blood samples, taken by decapitation 24 hours after injection, are collected directly into beakers. The samples are allowed to clot, centrifuged, and the resultant sera are assayed for complement activity using the capillary complement assay. Percent inhibition is calculated by comparison with simultaneous controls.

human serum complement = details: both in vitro and in vivo; cited from earlier work
[3] = serum complement 2 hours after injection, read-out: In vivo Activity Guinea Pig % Inhibition Intraperitoneal, 2 hours
[4] = serum complement 6 hours after injection, read-out: In vivo Activity Guinea Pig % Inhibition Intraperitoneal, 6 hours
[5] = serum complement 24 hours after injection, read-out: In vivo Activity Guinea Pig % Inhibition Intraperitoneal, 24 hours

In vitro Activity C1 026 Wells (activated human C1): 5 Wells
Molecule: 4-(Sulfanilamido)phenyl 2,3,6-tri-O-sulfo-4-O-(2,3,4,6-tetra-O-sulfo-α-D-glucopyranosyl)-1-thio-β-D-glucopyranoside octasodium salt

In vitro Activity C1 026 Wells (activated human C1): 11 Wells
Molecule: O=S(=O)(O)OC[C@H]1O[C@@H]([S+]([O-])c2cc(OS(=O)(=O)O)ccc2OS(=O)(=O)O)[C@H](OS(=O)(=O)O)[C@@H](OS(=O)(=O)O)[C@@H]1O[C@H]1O[C@H](COS(=O)(=O)O)[C@@H](OS(=O)(=O)O)[C@H](OS(=O)(=O)O)[C@H]1OS(=O)(=O)O (stereo partly drawn) [2,5-Bis(sulfooxy)phenyl 2,3,6-tri-O-sulfo-4-O-(2,3,4,6-tetra-O-sulfo-α-D-glucopyranosyl)-1-sulfinyl-β-D-glucopyranoside nonasodium salt]
In vitro Activity C-Late 035 Wells [1]: 2 Wells

Molecule: O=S(=O)([O-])OC[C@H]1O[C@@H](Sc2cc(OS(=O)(=O)[O-])ccc2OS(=O)(=O)[O-])[C@H](OS(=O)(=O)[O-])[C@@H](OS(=O)(=O)[O-])[C@@H]1O[C@H]1O[C@H](COS(=O)(=O)[O-])[C@@H](OS(=O)(=O)[O-])[C@H](OS(=O)(=O)[O-])[C@H]1OS(=O)(=O)[O-].[Na+].[Na+].[Na+].[Na+].[Na+].[Na+].[Na+].[Na+].[Na+] [2,5-Bis(sulfooxy)phenyl 2,3,6-tri-O-sulfo-4-O-(2,3,4,6-tetra-O-sulfo-α-D-glucopyranosyl)-1-thio-β-D-glucopyranoside nonasodium salt]
In vitro Activity C-Late 035 Wells [1]: 2 Wells | inhibition at 200 mg/kg [2, 3]: 83% | inhibition at 200 mg/kg [2, 4]: 77% | In vitro Activity C1 026 Wells (activated human C1): 9 Wells

Molecule: O=C([O-])c1ccccc1S[C@@H]1O[C@H](COS(=O)(=O)[O-])[C@@H](O[C@H]2O[C@H](COS(=O)(=O)[O-])[C@@H](OS(=O)(=O)[O-])[C@H](OS(=O)(=O)[O-])[C@H]2OS(=O)(=O)[O-])[C@H](OS(=O)(=O)[O-])[C@H]1OS(=O)(=O)[O-].[Na+].[Na+].[Na+].[Na+].[Na+].[Na+].[Na+].[Na+] [2-Carboxyphenyl 2,3,6-tri-O-sulfo-4-O-(2,3,4,6-tetra-O-sulfo-α-D-glucopyranosyl)-1-thio-β-D-glucopyranoside octasodium salt]
In vitro Activity C1 026 Wells (activated human C1): 8 Wells

Molecule: O=S(=O)(O)OC[C@H]1O[C@@H](Sc2cccc(S)c2)[C@H](OS(=O)(=O)O)[C@@H](OS(=O)(=O)O)[C@@H]1O[C@H]1O[C@H](COS(=O)(=O)O)[C@@H](OS(=O)(=O)O)[C@H](OS(=O)(=O)O)[C@H]1OS(=O)(=O)O.[Na+].[Na+].[Na+].[Na+].[Na+].[Na+].[Na+].[Na+] [3-Mercaptophenyl 2,3,6-tri-O-sulfo-4-O-(2,3,4,6-tetra-O-sulfo-α-D-glucopyranosyl)-1-thio-β-D-glucopyranoside octasodium salt]
In vitro Activity C-Late 035 Wells [1]: 3 Wells | In vitro Activity C1 026 Wells (activated human C1): 11 Wells

Molecule: O=S(=O)([O-])OC[C@H]1O[C@@H](Sc2cccc(C(F)(F)F)c2)[C@H](OS(=O)(=O)[O-])[C@@H](OS(=O)(=O)[O-])[C@@H]1O[C@H]1O[C@H](COS(=O)(=O)[O-])[C@@H](OS(=O)(=O)[O-])[C@H](OS(=O)(=O)[O-])[C@H]1OS(=O)(=O)[O-].[Na+].[Na+].[Na+].[Na+].[Na+].[Na+].[Na+] [3-Trifluoromethylphenyl 2,3,6-tri-O-sulfo-4-O-(2,3,4,6-tetra-O-sulfo-α-D-glucopyranosyl)-1-thio-β-D-glucopyranoside heptasodium salt]
In vitro Activity C1 026 Wells (activated human C1): 5 Wells

In vitro Activity C1 026 Wells (activated human C1): 8 Wells
Molecule: CCOC(=O)C(=O)Nc1ccc(S[C@@H]2O[C@H](COS(=O)(=O)O)[C@@H](O[C@H]3O[C@H](COS(=O)(=O)O)[C@@H](OS(=O)(=O)O)[C@H](OS(=O)(=O)O)[C@H]3OS(=O)(=O)O)[C@H](OS(=O)(=O)O)[C@H]2OS(=O)(=O)O)cc1 [4-(Ethoxyoxalylamino)phenyl 2,3,6-tri-O-sulfo-4-O-(2,3,4,6-tetra-O-sulfo-α-D-glucopyranosyl)-1-thio-β-D-glucopyranoside heptasodium salt]
inhibition at 200 mg/kg [2, 3]: 81% | inhibition at 200 mg/kg [2, 4]: 71% | inhibition at 200 mg/kg [2, 5]: 32%

Molecule: Nc1ccc(S[C@@H]2O[C@H](COS(=O)(=O)[O-])[C@@H](O[C@H]3O[C@H](COS(=O)(=O)[O-])[C@@H](OS(=O)(=O)[O-])[C@H](OS(=O)(=O)[O-])[C@H]3OS(=O)(=O)[O-])[C@H](OS(=O)(=O)[O-])[C@H]2OS(=O)(=O)[O-])cc1.[Na+].[Na+].[Na+].[Na+].[Na+].[Na+].[Na+] [4-Aminophenyl 2,3,6-tri-O-sulfo-4-O-(2,3,4,6-tetra-O-sulfo-α-D-glucopyranosyl)-1-thio-β-D-glucopyranoside heptasodium salt]
inhibition at 200 mg/kg [2, 3]: 61% | inhibition at 200 mg/kg [2, 4]: 19% | inhibition at 200 mg/kg [2, 5]: 42% | In vitro Activity C1 026 Wells (activated human C1): 9 Wells

Molecule: O=S(=O)([O-])OC[C@H]1O[C@@H](Sc2ccc(F)cc2)[C@H](OS(=O)(=O)[O-])[C@@H](OS(=O)(=O)[O-])[C@@H]1O[C@H]1O[C@H](COS(=O)(=O)[O-])[C@@H](OS(=O)(=O)[O-])[C@H](OS(=O)(=O)[O-])[C@H]1OS(=O)(=O)[O-].[Na+].[Na+].[Na+].[Na+].[Na+].[Na+].[Na+] [4-Fluorophenyl 2,3,6-tri-O-sulfo-4-O-(2,3,4,6-tetra-O-sulfo-α-D-glucopyranosyl)-1-thio-β-D-glucopyranoside heptasodium salt]
In vitro Activity C1 026 Wells (activated human C1): 8 Wells

Molecule: COc1ccc(S[C@@H]2O[C@H](COS(=O)(=O)[O-])[C@@H](O[C@H]3O[C@H](COS(=O)(=O)[O-])[C@@H](OS(=O)(=O)[O-])[C@H](OS(=O)(=O)[O-])[C@H]3OS(=O)(=O)[O-])[C@H](OS(=O)(=O)[O-])[C@H]2OS(=O)(=O)[O-])cc1.[Na+].[Na+].[Na+].[Na+].[Na+].[Na+].[Na+] [4-Methoxyphenyl 2,3,6-tri-O-sulfo-4-O-(2,3,4,6-tetra-O-sulfo-α-D-glucopyranosyl)-1-thio-β-D-glucopyranoside heptasodium salt]
In vitro Activity C1 026 Wells (activated human C1): 4 Wells

Molecule: O=S(=O)([O-])OC[C@H]1O[C@@H](Sc2ccc(OS(=O)(=O)[O-])cc2)[C@H](OS(=O)(=O)[O-])[C@@H](OS(=O)(=O)[O-])[C@@H]1O[C@H]1O[C@H](COS(=O)(=O)[O-])[C@@H](OS(=O)(=O)[O-])[C@H](OS(=O)(=O)[O-])[C@H]1OS(=O)(=O)[O-].[Na+].[Na+].[Na+].[Na+].[Na+].[Na+].[Na+].[Na+] [4-Sulfooxyphenyl 2,3,6-tri-O-sulfo-4-O-(2,3,4,6-tetra-O-sulfo-α-D-glucopyranosyl)-1-thio-β-D-glucopyranoside octasodium salt]
In vitro Activity C1 026 Wells (activated human C1): 8 Wells

Molecule: CC(=O)Nc1ccc(S[C@@H]2O[C@H](COS(=O)(=O)O)[C@@H](O[C@@H]3O[C@H](COS(=O)(=O)O)[C@@H](OS(=O)(=O)O)[C@H](OS(=O)(=O)O)[C@H]3OS(=O)(=O)O)[C@H](OS(=O)(=O)O)[C@H]2OS(=O)(=O)O)cc1 [4-acetamidophenyl 2,3,6-tri-O-sulfo-4-O-(2,3,4,6-tetra-O-sulfo-β-D-glucopyranosyl)-1-thio-β-D-glucopyranoside heptasodium salt]
inhibition at 200 mg/kg [2, 3]: 86% | inhibition at 200 mg/kg [2, 4]: 66% | inhibition at 200 mg/kg [2, 5]: 15%

Molecule: pentosan-polysulfoester
anticomplementary activity, judged by the reduction in total hemolytic complement activity (human serum complement): has an anticomplementary activity on human serum, both in vitro and in vivo

From US4470976A, “Poly-cation salt of 4-O-polyhexaose-thio-arylene sulfates” (American Cyanamid Company, priority 1983, dated 1984)
